ChEMBL document CHEMBL5678805, “Intermittent administration of MEK inhibitor GDC-0973 plus PI3K inhibitor GDC-0941 triggers robust apoptosis and tumor growth inhibition” (Cancer Res, 2012)
The source made the active and inactive calls. The calls are words filed in the database; no cut-off is given here.

Key:
[1] = test system: A2058; assay: Antitumor activity against human A2058 cells harboring BRAF V600E/PTEN deletion mutant xenografted in mouse assessed as decrease in tumor volume at 10 mg/kg, po administered once weekly for 21 days in presence of GDC-0973 by digital calipers analysis; type: functional, organism-based; conditions: time 21.0 day
[2] = test system: A2058; assay: Antitumor activity against human A2058 cells harboring BRAF V600E/PTEN deletion mutant xenografted in mouse assessed as decrease in tumor volume at 1.5 mg/kg, po administered once daily for 21 days in presence of GDC-0973 by digital calipers analysis; type: functional, organism-based; conditions: time 21.0 day
[3] = Antitumor activity against human A375.X1 cells xenografted in mouse assessed as tumor growth inhibition at 30 mg/kg, po administered once a day for 21 days; type: functional; conditions: A375.X1, 504 h, time 21 day, read-out: TGI
[4] = Antitumor activity against human A375.X1 cells xenografted in mouse assessed as tumor growth inhibition at 100 mg/kg, po administered once a day for 21 days in presence of (S)-(3,4-difluoro-2-((2-fluoro-4-iodophenyl)amino)phenyl)(3-hydroxy-3-(piperidin-2-yl)azetidin-1-yl)methanone; type: functional; conditions: A375.X1, 504 h, time 21 day, read-out: TGI
[5] = test system: A2058; assay: Antitumor activity against human A2058 cells xenografted in mouse assessed as tumor growth inhibition at 150 mg/kg, po administered every third day for 21 days; type: functional; conditions: A2058, 504 h, time 21 day, read-out: TGI
[6] = test system: DLD-1; assay: Antitumor activity against human DLD-1 cells xenografted in mouse assessed as tumor growth inhibition at 50 mg/kg, po administered every third day for 21 days; type: functional; conditions: DLD-1, 504 h, time 21 day, read-out: TGI
[7] = test system: A2058; assay: Antitumor activity against human A2058 cells xenografted in mouse assessed as tumor growth inhibition at 100 mg/kg, po administered once a day for 21 days; type: functional; conditions: A2058, 504 h, time 21 day, read-out: TGI
[8] = Antitumor activity against human A375.X1 cells xenografted in mouse assessed as tumor growth inhibition at 100 mg/kg, po administered once a day for 21 days; type: functional; conditions: A375.X1, 504 h, time 21 day, read-out: TGI
[9] = test system: NCI-H2122; assay: Antitumor activity against human NCI-H2122 cells xenografted in mouse assessed as tumor growth inhibition at 100 mg/kg, po administered once a day for 21 days in presence of (S)-(3,4-difluoro-2-((2-fluoro-4-iodophenyl)amino)phenyl)(3-hydroxy-3-(piperidin-2-yl)azetidin-1-yl)methanone; type: functional; conditions: NCI-H2122, 504 h, time 21 day, read-out: TGI
[10] = test system: A2058; assay: Antitumor activity against human A2058 cells xenografted in mouse assessed as tumor growth inhibition at 30 mg/kg, po administered once a day for 21 days in presence of (S)-(3,4-difluoro-2-((2-fluoro-4-iodophenyl)amino)phenyl)(3-hydroxy-3-(piperidin-2-yl)azetidin-1-yl)methanone; type: functional; conditions: A2058, 504 h, time 21 day, read-out: TGI
[11] = test system: NCI-H2122; assay: Antitumor activity against human NCI-H2122 cells xenografted in mouse assessed as tumor growth inhibition at 150 mg/kg, po administered […] for 21 days; type: functional; conditions: NCI-H2122, 504 h, time 21 day, read-out: TGI
[12] = test system: A2058; assay: Antitumor activity against human A2058 cells xenografted in mouse assessed as tumor growth inhibition at 30 mg/kg, po administered once a day for 21 days; type: functional; conditions: A2058, 504 h, time 21 day, read-out: TGI
[13] = test system: DLD-1; assay: Antitumor activity against human DLD-1 cells xenografted in mouse assessed as tumor growth inhibition at 30 mg/kg, po administered once a day for 21 days in presence of (S)-(3,4-difluoro-2-((2-fluoro-4-iodophenyl)amino)phenyl)(3-hydroxy-3-(piperidin-2-yl)azetidin-1-yl)methanone; type: functional; conditions: DLD-1, 504 h, time 21 day, read-out: TGI
[14] = Antitumor activity against human A375.X1 cells xenografted in mouse assessed as tumor growth inhibition at 150 mg/kg, po administered every third day for 21 days; type: functional; conditions: A375.X1, 504 h, time 21 day, read-out: TGI
[15] = Antitumor activity against human A375.X1 cells xenografted in mouse assessed as tumor growth inhibition at 30 mg/kg, po administered once a day for 21 days in presence of (S)-(3,4-difluoro-2-((2-fluoro-4-iodophenyl)amino)phenyl)(3-hydroxy-3-(piperidin-2-yl)azetidin-1-yl)methanone; type: functional; conditions: A375.X1, 504 h, time 21 day, read-out: TGI
[16] = test system: NCI-H2122; assay: Antitumor activity against human NCI-H2122 cells xenografted in mouse assessed as tumor growth inhibition at 30 mg/kg, po administered once a day for 21 days; type: functional; conditions: NCI-H2122, 504 h, time 21 day, read-out: TGI
[17] = test system: DLD-1; assay: Antitumor activity against human DLD-1 cells xenografted in mouse assessed as tumor growth inhibition at 50 mg/kg, po administered every third day for 21 days in presence of (S)-(3,4-difluoro-2-((2-fluoro-4-iodophenyl)amino)phenyl)(3-hydroxy-3-(piperidin-2-yl)azetidin-1-yl)methanone; type: functional; conditions: DLD-1, 504 h, time 21 day, read-out: TGI
[18] = test system: NCI-H2122; assay: Antitumor activity against human NCI-H2122 cells xenografted in mouse assessed as tumor growth inhibition at 30 mg/kg, po administered once a day for 21 days in presence of (S)-(3,4-difluoro-2-((2-fluoro-4-iodophenyl)amino)phenyl)(3-hydroxy-3-(piperidin-2-yl)azetidin-1-yl)methanone; type: functional; conditions: NCI-H2122, 504 h, time 21 day, read-out: TGI
[19] = test system: NCI-H2122; assay: Antitumor activity against human NCI-H2122 cells xenografted in mouse assessed as tumor growth inhibition at 100 mg/kg, po administered once a day for 21 days; type: functional; conditions: NCI-H2122, 504 h, time 21 day, read-out: TGI
[20] = test system: DLD-1; assay: Antitumor activity against human DLD-1 cells xenografted in mouse assessed as tumor growth inhibition at 30 mg/kg, po administered once a day for 21 days; type: functional; conditions: DLD-1, 504 h, time 21 day, read-out: TGI
[21] = Antitumor activity against human A375.X1 cells xenografted in mouse assessed as tumor growth inhibition at 150 mg/kg, po administered every third day for 21 days in presence of (S)-(3,4-difluoro-2-((2-fluoro-4-iodophenyl)amino)phenyl)(3-hydroxy-3-(piperidin-2-yl)azetidin-1-yl)methanone; type: functional; conditions: A375.X1, 504 h, time 21 day, read-out: TGI
[22] = test system: NCI-H2122; assay: Antitumor activity against human NCI-H2122 cells xenografted in mouse assessed as tumor growth inhibition at 150 mg/kg, po administered […] for 21 days in presence of (S)-(3,4-difluoro-2-((2-fluoro-4-iodophenyl)amino)phenyl)(3-hydroxy-3-(piperidin-2-yl)azetidin-1-yl)methanone; type: functional; conditions: NCI-H2122, 504 h, time 21 day, read-out: TGI

**Q.** With `Cc1c(CN2CCN(C(=O)[C@H](C)O)CC2)sc2c(N3CCOCC3)nc(-c3cnc(N)nc3)nc12` as the compound, how does the Activity [1] read?
**A.** Active

**Q.** What about the Activity [2] of the same compound?
**A.** Active

**Q.** Which inhibition in vivo at 30 mg/kg [3] does the source give for `CS(=O)(=O)N1CCN(Cc2cc3nc(-c4cccc5[nH]ncc45)nc(N4CCOCC4)c3s2)CC1` [PICTILISIB] here?
**A.** 23%

**Q.** And the inhibition in vivo at 100 mg/kg [4]?
**A.** 122%

**Q.** What about the inhibition in vivo at 150 mg/kg [5] of the same compound?
**A.** 50%

**Q.** What about the inhibition in vivo at 50 mg/kg [6] of the same compound?
**A.** 13%

**Q.** And the inhibition in vivo at 100 mg/kg [7]?
**A.** 58%

**Q.** What about the inhibition in vivo at 100 mg/kg [8] of the same compound?
**A.** -2%

**Q.** And the inhibition in vivo at 100 mg/kg [9]?
**A.** 156%

**Q.** And the inhibition in vivo at 30 mg/kg [10]?
**A.** 73%

**Q.** What about the inhibition in vivo at 150 mg/kg [11] of the same compound?
**A.** 43%

**Q.** And the inhibition in vivo at 30 mg/kg [12]?
**A.** 24%

**Q.** What about the inhibition in vivo at 30 mg/kg [13] of the same compound?
**A.** 88%

**Q.** What about the inhibition in vivo at 150 mg/kg [14] of the same compound?
**A.** 57%

**Q.** And the inhibition in vivo at 30 mg/kg [15]?
**A.** 69%

**Q.** What about the inhibition in vivo at 30 mg/kg [16] of the same compound?
**A.** 63%

**Q.** What about the inhibition in vivo at 50 mg/kg [17] of the same compound?
**A.** 72%

**Q.** And the inhibition in vivo at 30 mg/kg [18]?
**A.** 75%

**Q.** And the inhibition in vivo at 100 mg/kg [19]?
**A.** 91%

**Q.** What about the inhibition in vivo at 30 mg/kg [20] of the same compound?
**A.** 63%

**Q.** What about the inhibition in vivo at 150 mg/kg [21] of the same compound?
**A.** 118%

**Q.** What about the inhibition in vivo at 150 mg/kg [22] of the same compound?
**A.** 87%
